{"source": "paper PMC10726355", "about": "“Small Molecule Ligands of the BET-like Bromodomain, SmBRD3, Affect Schistosoma mansoni Survival, Oviposition, and Development” (Journal of Medicinal Chemistry, 2023)", "key": {"HsBRD4(1)": {"target": "T1, HsBRD4(1) (Homo sapiens, UniProt O60885)", "T1 construct": "HsBRD4(1) Kd (ITC, nM); made in house; host or cells: E. coli BL21(DE3)", "assay": "Isothermal titration calorimetry (ITC), HsBRD4(1)", "assay_type": "binding", "settings": "single value ± error of the curve fit"}, "chromLogD assay": {"assay": "chromLogD assay", "assay_type": "physicochemical", "settings": "reversed phase HPLC column (Gemini NX C18), pH 7.4", "description": "Lipophilicity: a chromLogD assay was carried out by the Physchem Team, Discovery Analytical, NCE Molecular Discovery at GSK. The chromatographic hydrophobicity index (CHI)[46],[47] values were measured using reversed phase HPLC column (50 × 2 mm […] Gemini NX C18, Phenomenex, UK) with fast acetonitrile gradient at starting mobile phase of pHs 2, 7.4, or 10.5. CHI values were derived directly from the gradient retention times using calibration parameters for standard compounds. The CHI value approximates to the volume % organic concentration when the compound elutes. CHI was linearly transformed into a chromLogD[48] value by least-squares fitting of experimental CHI values to calculated cLogP values for over 20000 research compounds."}, "SmBRD3(2)": {"target": "SmBRD3(2) (Schistosoma mansoni, UniProt A0A5K4ESD7)", "sequence (A0A5K4ESD7 entry or part of it)": "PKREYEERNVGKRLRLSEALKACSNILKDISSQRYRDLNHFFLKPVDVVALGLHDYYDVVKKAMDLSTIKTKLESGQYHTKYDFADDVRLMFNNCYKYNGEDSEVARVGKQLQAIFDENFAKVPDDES", "assay": "biochemical", "assay_type": "binding", "settings": "for N number, binding to SmBRD3(2), Repeat 1 / N number, binding to SmBRD3(2), Repeat 2 / N number, binding to SmBRD3(2), Repeat 3 / N number, binding to SmBRD3(2), Mean: ITC stoichiometry; for N number, binding to SmBRD3(2), Mean: mean of repeats"}, "CAD solubility assay": {"assay": "CAD solubility assay", "assay_type": "physicochemical", "settings": "phosphate buffered saline, pH 7.4, phosphate buffered saline at pH 7.4; read-out: Aqueous Solubility by CAD", "description": "A CAD solubility assay was carried out by Physchem Team, Discovery Analytical, NCE Molecular Discovery at GSK. 5 μL of 10 mM DMSO stock solution was diluted to 100 μL with pH 7.4 phosphate buffered saline, equilibrated for 1 h at room temperature, and filtered through Millipore MultiscreenHTS-PCF filter plates (MSSL BPC). The filtrate was quantified using a suitably calibrated charged aerosol detector.[45]"}, "adult male S. mansoni": {"test_system": "adult male S. mansoni", "assay": "Determination of compound parasite permeability (LCMS of worm lysate)", "assay_type": "in vitro ADME, Schistosoma mansoni", "settings": "worms treated with 20 μM of the same compound for 24 h; LCMS"}, "S. mansoni adult worms": {"test_system": "S. mansoni adult worms", "assay": "Ex vivo adult worm screening (motility, IVLEs, pairing)", "parameters": "species or system Schistosoma mansoni", "settings": "72 h", "description": "S. mansoni adult worms were recovered by hepatic portal vein perfusion from TO mice (Mus musculus HsdOLa:TO - Tuck Ordinary; Envigo, UK) that were percutaneously infected 7 weeks earlier with 180 cercariae.[65],[71] Following perfusion, schistosomes were washed and processed as previously described.[65],[66] Subsequently, schistosome pairs were seeded into 48 well tissue culture plates (1 worm pair/well, in duplicate) and dosed with the compounds (20 μM in 0.2% DMSO). DMSO (0.2%) and praziquantel (10 μM in 0.1% DMSO) were also included as negative and positive controls, respectively. Parasite motility was assessed by a digital image processing-based system (WormassayGP2),[66] modified after Wormassay.[72]In vitro laid eggs (IVLEs) were enumerated and the presence or absence of paired worms was noted."}, "S. mansoni miracidia": {"test_system": "S. mansoni miracidia", "assay": "Ex vivo miracidia to sporocyst transformation screening", "parameters": "species or system Schistosoma mansoni", "settings": "0.5-25 μM in 1% DMSO; 48 h", "description": "S. mansoni miracidia were obtained by hatching of schistosome eggs as previously described.[73] The resulting miracidial suspension was collected, washed with Chernin’s balanced salt solution (CBSS),[73] and enumerated prior to being used for ex vivo miracidia to sporocyst screens as previously reported.[66],[73] Each compound was tested at 0.5, 2.0, 5.0, 10, and 25 μM final concentrations (in 1% DMSO). Each treatment was set up in duplicate (15–25 miracidia/well). Each titration was performed in three independent experiments (two technical replicates per data point). Parasites cultured in CBSS (containing 1% DMSO) were included as negative controls. After 48 h incubation at 26 °C in the dark, dead, fully transformed and partially transformed miracidia were enumerated as previously described.[74],[75]"}, "S. mansoni schistosomula": {"test_system": "S. mansoni schistosomula", "assay": "Ex vivo schistosomula screening (Roboworm high content imaging)", "parameters": "species or system Schistosoma mansoni", "settings": "20 μM (Figure 7) or 10 μM (Figure S48); 72 h", "description": "A high-throughput imaging platform that quantifies both phenotype and motility ex vivo, was used to screen compounds against schistosomula; their effects were assessed as previously described.[20] Briefly, the schistosomula stage of S. mansoni was obtained by mechanical transformation of cercariae, dispensed into 384-well tissue culture plates, and dosed with 20 μM (Figure 7) or 10 μM (Figure S48) of each compound. Following 72 h coincubation of the schistosomula and compound, the plate was subjected to high content imaging to quantify the effects of each compound.\nS. mansoni schistosomula were obtained by mechanical transformation from cercariae as previously described,[64] distributed in 384-well tissue culture plates (PerkinElmer, catalogue number 6007460) at 120 parasites/well and dosed with the selected compounds as previously reported.[65]−[68] For this study, each compound (as 10 mM DMSO stock solution) was initially tested at two concentration points (20 and 10 μM final concentration, in duplicates) in at least four independent screens (Z′ scores above 0.35).[69] Each screen contained both positive (10 μM auranofin (AUR) in 0.625% DMSO) and negative (0.625% DMSO) controls. […] Following 72 h schistosomula/compound coincubation, the plate was analyzed by the Roboworm platform.[70] EC50 values were calculated from the titrated concentrations by nonlinear regression, after log transformation of concentrations and data normalization using GraphPad Prism 7.02."}, "[1]": {"settings": "ITC, read-out: SmBRD3(2) pKd (converted)"}, "[2]": {"settings": "ITC, single run ± error of curve fit, Repeat 2, read-out: SmBRD3(2) Kd, Repeat 2"}, "[3]": {"settings": "ITC, single run ± error of curve fit, Repeat 3, read-out: SmBRD3(2) Kd, Repeat 3"}}, "note": "Read-outs that look alike come from different tables or passages of the source."}
{"smiles": "CC(=O)N1c2ccc(-c3ccc(C(=O)O)cc3)cc2[C@H](Nc2ccc3ccsc3c2)C[C@@H]1C", "note": "[Compound 9, 4-{(2S,4R)-1-Acetyl-4-[(1-benzothiophen-6-yl)amino]-2-methyl-1,2,3,4-tetrahydroquinolin-6-yl}benzoic Acid]", "values": [{"measurement": "HsBRD4(1) Kd (ITC)", "setting": "HsBRD4(1)", "value": "high affinity"}, {"measurement": "Kd", "setting": "HsBRD4(1)", "value": "0.0644 ± 0.0207", "unit": "µM"}, {"measurement": "chromatographic logD", "setting": "chromLogD assay", "value": 2.83}, {"measurement": "N number, binding to SmBRD3(2), Repeat 1", "setting": "SmBRD3(2); Repeat 1", "value": "1.52 ± 2.2e-2"}, {"measurement": "N number, binding to SmBRD3(2), Repeat 2", "setting": "SmBRD3(2); Repeat 2", "value": "1.57 ± 3.4e-2"}, {"measurement": "N number, binding to SmBRD3(2), Repeat 3", "setting": "SmBRD3(2); Repeat 3", "value": "1.64 ± 3.3e-2"}, {"measurement": "N number, binding to SmBRD3(2), Mean", "setting": "SmBRD3(2)", "value": 1.58}, {"measurement": "Kd", "setting": "SmBRD3(2); [1]", "value": 0.631, "unit": "µM"}, {"measurement": "Kd", "setting": "SmBRD3(2); ITC, single run ± error of curve fit, Repeat 1, read-out: SmBRD3(2) Kd, Repeat 1", "value": "0.572 ± 0.103", "unit": "µM"}, {"measurement": "Kd", "setting": "SmBRD3(2); [2]", "value": "0.778 ± 0.179", "unit": "µM"}, {"measurement": "Kd", "setting": "SmBRD3(2); [3]", "value": "0.753 ± 0.176", "unit": "µM"}, {"measurement": "Kd", "setting": "SmBRD3(2); read-out: SmBRD3(2) Kd", "value": "0.701 ± 0.0649", "unit": "µM"}, {"measurement": "solubility at 1 h", "setting": "CAD solubility assay", "value": "≥ 259", "unit": "µM"}]}
{"smiles": "CC(=O)N1c2ccc(-c3ccc(C(=O)O)cc3)cc2[C@H](Nc2ccc3ncccc3c2)C[C@@H]1C", "note": "[Compound 15, 4-{(2S,4R)-1-Acetyl-2-methyl-4-[(quinolin-6-yl)amino]-1,2,3,4-tetrahydroquinolin-6-yl}benzoic Acid]", "values": [{"measurement": "HsBRD4(1) Kd (ITC)", "setting": "HsBRD4(1)", "value": "high affinity"}, {"measurement": "Kd", "setting": "HsBRD4(1)", "value": "0.0135 ± 0.00247", "unit": "µM"}, {"measurement": "N number, binding to SmBRD3(2), Repeat 1", "setting": "SmBRD3(2); Repeat 1", "value": "1.48 ± 2.5e-2"}, {"measurement": "N number, binding to SmBRD3(2), Repeat 2", "setting": "SmBRD3(2); Repeat 2", "value": "1.51 ± 2.0e-2"}, {"measurement": "N number, binding to SmBRD3(2), Repeat 3", "setting": "SmBRD3(2); Repeat 3", "value": "1.69 ± 1.8e-2"}, {"measurement": "N number, binding to SmBRD3(2), Mean", "setting": "SmBRD3(2)", "value": 1.56}, {"measurement": "Kd", "setting": "SmBRD3(2); [1]", "value": 0.398, "unit": "µM"}, {"measurement": "Kd", "setting": "SmBRD3(2); [2]", "value": "0.361 ± 0.0702", "unit": "µM"}, {"measurement": "Kd", "setting": "SmBRD3(2); [3]", "value": "0.411 ± 0.0604", "unit": "µM"}, {"measurement": "Kd", "setting": "SmBRD3(2); read-out: SmBRD3(2) Kd", "value": "0.364 ± 0.0263", "unit": "µM"}, {"measurement": "Kd", "setting": "SmBRD3(2); read-out: SmBRD3(2) Kd, Repeat 1", "value": "0.32 ± 0.0828", "unit": "µM"}, {"measurement": "Quantity of compound found in lysed adult worms", "setting": "adult male S. mansoni", "value": "lower quantities"}]}
{"smiles": "CCOC(=O)c1ccc(-c2ccc3c(c2)[C@@H](Nc2ccc4ccsc4c2)C[C@@H](C)N3C(C)=O)cc1", "note": "[Compound 17, Ethyl 4-{(2R,4S)-1-Acetyl-4-[(1-benzothiophen-6-yl)amino]-2-methyl-1,2,3,4-tetrahydroquinolin-6-yl}benzoate]", "values": [{"measurement": "chromatographic logD", "setting": "chromLogD assay", "value": 7.61}, {"measurement": "SmBRD3(2) Kd", "setting": "SmBRD3(2)", "value": "No binding"}, {"measurement": "SmBRD3(2) Kd, Repeat 1", "setting": "SmBRD3(2)", "value": "No binding"}, {"measurement": "Effect on adult worm movement", "setting": "S. mansoni adult worms; 20 μM in 0.2% DMSO", "value": "some modest effects"}, {"measurement": "Effect on egg count (in vitro laid eggs)", "setting": "S. mansoni adult worms; 20 μM", "value": "some modest effects"}, {"measurement": "Toxicity to miracidia (dead parasites)", "setting": "S. mansoni miracidia", "value": "toxic at the higher concentrations"}, {"measurement": "Effect on schistosomula motility", "setting": "S. mansoni schistosomula", "value": "did not have substantial effects"}, {"measurement": "Effect on schistosomula phenotype", "setting": "S. mansoni schistosomula", "value": "did not have substantial effects"}, {"measurement": "solubility at 1 h", "setting": "CAD solubility assay", "value": 1, "unit": "µM"}]}
